For orientation: IC50 means the point on the concentration scale where inhibition reaches its midpoint.

The values that follow come from BindingDB's records for patent WO2024074497 (Forx Therapeutics, 2024).

In this experiment the target is T1, Poly(ADP-ribose) glycohydrolase [448-976,L473S,N479S,S802A,R811K,M841I,S858P,I916T,T924D,D927K,C963S,A967T] (UniProt Q86W56, A967T/C963S/D927K/I916T/L473S/M841I/N479S/R811K/S802A/S858P/T924D).
T1 construct: 448-976
Description: PARG enzymatic IC50 assay. As for the experimental part: PARG enzyme as incubated with compound or vehicle (DMSO) for 15 minutes or 2 hours in a 384 well plate. After adding the PARG substrate ADP-ribose-pNP, the plate was read for absorbance intensity at 405 nm. The vehicle (DMSO) with high absorbance intensity represents no inhibition of enzymatic reaction while the low control (no enzyme) with low absorbance intensity represents full inhibition of enzymatic reaction.

T1 sequence (Q86W56 448-976 L473S/N479S/S802A/R811K/M841I/S858P/I916T/T924D/D927K/C963S/A967T): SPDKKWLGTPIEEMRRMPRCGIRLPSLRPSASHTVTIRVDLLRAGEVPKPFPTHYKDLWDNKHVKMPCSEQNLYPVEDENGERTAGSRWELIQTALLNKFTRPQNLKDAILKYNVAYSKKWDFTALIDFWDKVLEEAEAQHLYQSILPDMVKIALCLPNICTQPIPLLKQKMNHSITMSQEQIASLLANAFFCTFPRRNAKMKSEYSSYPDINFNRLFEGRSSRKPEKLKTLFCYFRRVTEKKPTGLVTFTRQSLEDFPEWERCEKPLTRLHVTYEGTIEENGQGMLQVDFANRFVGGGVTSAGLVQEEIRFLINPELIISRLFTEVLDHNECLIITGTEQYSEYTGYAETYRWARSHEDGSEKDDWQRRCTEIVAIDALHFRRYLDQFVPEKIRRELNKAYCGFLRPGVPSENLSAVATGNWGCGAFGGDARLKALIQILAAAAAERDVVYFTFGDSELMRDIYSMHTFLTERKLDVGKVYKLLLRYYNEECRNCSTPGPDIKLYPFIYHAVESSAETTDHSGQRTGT

`C[C@H]1CN(c2cc(S(=O)(=O)NC3(C)CC3)cn3c(-c4nnc(C(F)F)s4)ncc23)C[C@H](C)N1` [WO2024074497, Example 1] displayed an IC50 of 110 nM.
